Test results taken from article PMC3426542, “A Novel Virulence Strategy for Pseudomonas aeruginosa Mediated by an Autotransporter with Arginine-Specific Aminopeptidase Activity” (PLoS Pathogens, 2012).

Target: T1, SGAP (Streptomyces griseus, UniProt P80561)
T1 construct: gene SGR_5809; commercial preparation (Sigma)
Assay: 4-nitroanilide release at […] nm, commercial enzyme
Format: biochemical
Conditions: 1 mM substrate, MMP, 37 °C

T1 sequence (P80561 46-329): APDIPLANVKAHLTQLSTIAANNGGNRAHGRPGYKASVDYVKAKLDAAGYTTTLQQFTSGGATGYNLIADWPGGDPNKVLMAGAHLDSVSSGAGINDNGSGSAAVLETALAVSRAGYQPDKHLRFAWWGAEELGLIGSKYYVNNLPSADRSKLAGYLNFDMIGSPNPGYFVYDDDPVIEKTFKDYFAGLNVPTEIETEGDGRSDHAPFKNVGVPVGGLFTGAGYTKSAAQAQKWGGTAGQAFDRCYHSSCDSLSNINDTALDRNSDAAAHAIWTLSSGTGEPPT

## CC(C)C[C@H](N)C(=O)Nc1ccc([N+](=O)[O-])cc1 [leucine-p-nitroanilide]
  4-nitroanilide release at 405 nm, commercial enzyme: SGAP clearly released maximal levels of 4-nitroanilide from leucine-p-nitroanilide and methionine-p-nitroanilide

## CSCC[C@H](N)C(=O)Nc1ccc([N+](=O)[O-])cc1 [methionine-p-nitroanilide]
  4-nitroanilide release at 405 nm, commercial enzyme: SGAP clearly released maximal levels of 4-nitroanilide from leucine-p-nitroanilide and methionine-p-nitroanilide
